In publication PMC6273487, “Characterisation of the Broadly-Specific O-Methyl-transferase JerF from the Late Stages of Jerangolid Biosynthesis” (Molecules, 2016):

Target: T1, JerF (Sorangium cellulosum, UniProt A1YBT9)
T1 construct: codon-optimised full-length gene in pCOLD-I, N-terminal His6 tag, expressed in E. coli BL21 (DE3), cell-free extract (not purified)
Test: HPLC-MS of O-methylated product after bioconversion with cell-free extract
Type: biochemical
Details: 5 mM MgCl2, 0.25 mM substrate

T1 sequence (A1YBT9 entry or part of it): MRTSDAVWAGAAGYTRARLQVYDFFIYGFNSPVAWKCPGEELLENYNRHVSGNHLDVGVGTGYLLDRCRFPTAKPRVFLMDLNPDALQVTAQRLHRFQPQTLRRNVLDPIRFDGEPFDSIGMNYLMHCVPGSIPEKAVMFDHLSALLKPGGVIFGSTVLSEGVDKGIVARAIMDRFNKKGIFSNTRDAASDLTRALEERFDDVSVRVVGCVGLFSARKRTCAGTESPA

Row | Compound | HPLC-MS of O-methylated product after bioconversion with cell-free extract (SAM tosylate 4.18 mM, 25 mM HEPES, pH 7.5, 28 °C, 20 h) | HPLC-MS of O-methylated product after bioconversion with cell-free extract (SAM tosylate 0.97 mM, 40 mM Tris HCl, pH 8.8, 28 °C, 16 h, empty-vector and heat-denatured lysate controls run)
1 | CC(C)/C=C/C1CC(=O)C(C)C(=O)O1 (racemic) [rac-14e, (E)-3-Methyl-6-(3-methylbut-1-en-1-yl)dihydro-2H-pyran-2,4(3H)-dione] | Full conversion was reproducibly obtained for compounds rac-14b, rac-14c, rac-14e and rac-14f | –
2 | C/C=C/C1CC(=O)C(C)C(=O)O1 (racemic) [rac-14d, (E)-3-Methyl-6-(prop-1-en-1-yl)dihydro-2H-pyran-2,4(3H)-dione] | – | rac-14d was almost completely converted into the respective O-methylated product mixture rac-15d
